Tests used:
Type in all cases: physicochemical
[1] = re-analysis of example batches after storage (KF, LOD)
Experimental: (§1) Determination of water content in the product based on a specific oxidation-reduction reaction between the water present in the sample and the Karl Fischer reagent.
(§2) About 200 mg of the 2′-FL were weighed into the appropriate container, the balance was set to zero and the substance transferred into the previously dehydrated cell. The empty container was placed on the pan of the balance to determine the exact value of the substance transferred into the cell. Set the measured weight into the formula: % H2O=V×T×F/PC
(§3) Gravimetric method with heating of the sample using a halogen lamp

[2] = stability studies of Polymorph A (accelerated and 25°C/60% RH): KF, loss on drying, XRPD after storage; settings: 40°±2° C., 75±5% RH and 25°±2° C., 60±5% RH
Experimental: In particular Polymorph A, was subjected to studies of stability both accelerated at 40°±2° C.; 75±5% RH and at 25°±2° C., 60±5% RH.
In particular, the percentage of water takes values between 5% and 7%, preferably between 5.5% and 6.5%, still more preferably between 5.7% and 6.2% (See Table 1).
as §1, §3

[3] = accelerated stability of Polymorph A, water content by Karl-Fischer over time; settings: accelerated stability (75 ± 5% RH)
Experimental: as §1, §2

For C[C@@H]1OC(O[C@H]2[C@H](O[C@H]3[C@H](O)[C@@H](O)C(O)O[C@@H]3CO)O[C@H](CO)[C@H](O)[C@@H]2O)[C@@H](O)[C@H](O)[C@@H]1O (mixture of isomers) [Example 4, 2′-O-fucosyllactose], the “KF after 6 months” value ([1]; after 6 months) was 6.00% and the “LOD after 6 months (Method 2)” value ([1]; after 6 months, LOD Method 2) was 2.17%.
With C[C@@H]1OC(O[C@H]2[C@H](O[C@H]3[C@H](O)[C@@H](O)C(O)O[C@@H]3CO)O[C@H](CO)[C@H](O)[C@@H]2O)[C@@H](O)[C@H](O)[C@@H]1O (mixture of isomers) [Example 19, 2′-O-fucosyllactose] the “KF after 2 months” value ([1]; after 2 months) was 0.34%.
In the case of C[C@@H]1OC(O[C@H]2[C@H](O[C@H]3[C@H](O)[C@@H](O)C(O)O[C@@H]3CO)O[C@H](CO)[C@H](O)[C@@H]2O)[C@@H](O)[C@H](O)[C@@H]1O (mixture of isomers) [Example 21, 2′-O-fucosyllactose], the “KF after 10 days in a petri dish” value ([1]; after 10 days in a petri dish) is reported as 0.67%.
In the case of C[C@@H]1OC(O[C@H]2[C@H](O[C@H]3[C@H](O)[C@@H](O)C(O)O[C@@H]3CO)O[C@H](CO)[C@H](O)[C@@H]2O)[C@@H](O)[C@H](O)[C@@H]1O (mixture of isomers) [Polymorph A, 2′-O-fucosyllactose], the “XRPD spectrum of stored samples (crystal form retention)” value [2] is reported as “continues to show the characteristic peaks of Polymorph A”, the “humidity uptake in stability studies (KF trend)” value ([2]; 1-3 months) is reported as “tends to adsorb humidity immediately” and the KF % ([3]; time 0 months) is reported as 4.2%. The KF % ([3]; time 1 month) was 6.0%, the KF % ([3]; time 2 months) was 6.0% and the KF % ([3]; time 3 months) was 5.7%. For the same molecule, the KF % ([3]; time 4 months) was 5.9%, the KF % ([3]; time 5 months) was 6.0% and the KF % ([3]; time 6 months) was 6.0%.
